Results published in patent US20190133968A1, “Applications of benzophenones in preparation of drug” (SHANXI MEDICAL UNIVERSITY, priority 2016, published 2019).

System: DN rats
Assay: type II diabetic nephropathy (DN) rat model (high-sugar high-fat diet + streptozocin)
Assay type: in vivo, SD (Sprague Dawley) rats
Settings: for BUN / CREA / Glycated hemoglobin / Urinary protein / mALB (microalbumin in urine) / ICAM-1 / IL-1β / IL-6 / MDA / NF-κB / SOD / T-AOC / TGF-β1 / TNF-α / VCAM-1 / Glucose (GLU) / HDL-C / LDL-C / TC / TG / UA / Kidney coefficient: gavage, 6 weeks; for Urinary protein / mALB (microalbumin in urine): 6-hour urine; for ICAM-1 / IL-1β / IL-6 / MDA / NF-κB / SOD / T-AOC / TGF-β1 / TNF-α / VCAM-1: renal tissues; for Glucose (GLU) / HDL-C / LDL-C / TC / TG / UA: serum; for Kidney coefficient: weights of two kidneys/body weight
Procedure: The solid dispersions are prepared through a solvent method, comprising steps of: respectively precisely weighing LM49, PVPK30 and tween80 with a weight ratio of 1:5:1, and A8, PVPK30 and tween80 with a weight ratio of 1:4:1; dissolving with appropriate absolute ethyl alcohol, continuously stirring, and uniformly mixing; placing on the water bath at 60° C., evaporating and removing the absolute ethyl alcohol, and obtaining a viscous material; placing in the freezer at −20° C., and freezing for 2 hours; taking out from the freezer, then placing in the vacuum drying oven, and drying for 24 hours; after becoming embrittlement, smashing and sieving with a sieve of 80 meshes, and then placing in the dryer for storage.
The healthy adult male SD rats (having a weight of 180-220 g) are fed with the high-sugar and high-fat diet for 4 weeks; the rats are fasting overnight; and streptozocin (STZ) of 40 mg/kg is intraperitoneally injected into the rats. The rats of normal control group are injected with the sodium citrate buffer of same volume; 72 hours later, the rats are fasting for 12 hours. […] During the administration period, the successfully established model rats are still fed with the high-sugar and high-fat diet, while the rats of the normal control group are fed with the normal diet.
After administration for 6 weeks, 6-hour urine of the rats is collected with the metabolism cage.
The rats are fasting overnight and anesthetized intraperitoneally, then the abdominal aorta blood thereof is drawn for measuring the related indexes. The two kidneys of each rat are washed with the normal saline; weights of the kidneys are recorded; and the kidney coefficient (weights of two kidneys/body weight) is calculated. The renal tissues (comprising the glomerulus and renal tubules) at the same part of the left kidney are cut lengthwise and immersed in the 10% neutral formalin for pathomorphology analysis, and the other parts of the left kidney are used for biochemical index measurement; the right kidney is used for mechanism research and stored in the freezer at −80° C.
After successfully establishing the model rats, expect the normal control group (ten rats), the remaining rats are randomly divided into eight groups, wherein each group has twelve rats. The eight groups are respectively the model group, the LM49 solid dispersion low-dose group (with the drug concentration of 3 mg/kg), the LM49 solid dispersion medium-dose group (with the drug concentration of 9 mg/kg), the LM49 solid dispersion high-dose group (with the drug concentration of 27 mg/kg), the A8 solid dispersion low-dose group (with the drug concentration of 3 mg/kg), the A8 solid dispersion medium-dose group (with the drug concentration of 9 mg/kg), the A8 solid dispersion high-dose group (with the drug concentration of 27 mg/kg), and the captopril control group (with the drug concentration of 15 mg/kg).
Administration Way: By Gavage.
The rats of the normal control group and the model group are administrated with the normal saline of 1.0 ml/100 g; the rats of the positive control group, the LM49 solid dispersion high-dose, medium-dose and low-dose groups and the A8 solid dispersion high-dose, medium-dose and low-dose groups are respectively administrated with the drugs of different concentrations, and the administration volume is 1.0 ml/100 g.
The solid dispersions are dissolved by the normal saline; and the rats of the positive control group are administrated with the 0.5% CMC-Na (sodium carboxymethyl cellulose) suspension.
The rats are administrated seven days a week, for totally six weeks.
The IBM SPSS Statistics 20 software is used for data processing, and the data is represented in x±s. The one-way analysis of variance (ANOVA) is adopted for comparison among the groups. According to the homogeneity test results of variance, if the variance is equal, the LSD (least significant difference) test is adopted; if the variance is unequal, the Dunnett's T3 test is adopted. […]

Molecule `O=C(c1cc(Br)ccc1O)c1cc(O)c(O)cc1Br` [LM49, 2,5′-dibromo-4,5,2′-trihydroxyldiphenylmethanone] has a BUN (DN rats, high-dose 27 mg/kg) of 10.66 ± 2.52 mmol/L, a CREA (DN rats, high-dose 27 mg/kg) of 55.12 ± 4.05 µmol/L and a Glycated hemoglobin (DN rats, high-dose 27 mg/kg) of 8.10 ± 1.50%. The Urinary protein (DN rats, high-dose 27 mg/kg) was 2.82 ± 0.54^□□▴◯● mg/6 h, the “mALB (microalbumin in urine)” value (DN rats, high-dose 27 mg/kg) was 52.22 ± 7.46^□□▴▴ μg/6 h and the ICAM-1 (DN rats, high-dose 27 mg/kg) was 282.88 ± 59.07 pg/mgprog. For the same molecule, the IL-1β (DN rats, high-dose 27 mg/kg) was 121.69 ± 16.12 pg/mgprog, the IL-6 (DN rats, high-dose 27 mg/kg) was 119.09 ± 11.51^□ pg/mgprog and the MDA (DN rats, high-dose 27 mg/kg) was 1.16 ± 0.19 nmol/mgprog. For the same molecule, the NF-κB (DN rats, high-dose 27 mg/kg) was 215.39 ± 43.61^□□▴▴◯◯ pg/mgprog, the SOD (DN rats, high-dose 27 mg/kg) was 4.06 ± 0.78 U/mgprog and the T-AOC (DN rats, high-dose 27 mg/kg) was 1.37 ± 0.31 U/mgprog. The TGF-β1 (DN rats, high-dose 27 mg/kg) was 30.58 ± 5.83^□□▴▴ pg/mgprot, the TNF-α (DN rats, high-dose 27 mg/kg) was 279.29 ± 41.89^□ pg/mgprog and the VCAM-1 (DN rats, high-dose 27 mg/kg) was 26.85 ± 5.63 pg/mgprog. The “Glucose (GLU)” value (DN rats, high-dose 27 mg/kg) was 10.73 ± 2.89^□□▴◯ mmol/L, the HDL-C (DN rats, high-dose 27 mg/kg) was 1.17 ± 0.24 mmol/L and the LDL-C (DN rats, high-dose 27 mg/kg) was 1.61 ± 0.54^□□ mmol/L. For the same molecule, the TC (DN rats, high-dose 27 mg/kg) was 3.00 ± 0.79^□□ mmol/L, the TG (DN rats, high-dose 27 mg/kg) was 0.54 ± 0.13^□□ mmol/L and the UA (DN rats, high-dose 27 mg/kg) was 29.41 ± 7.23^□□●● μmol/L. The Kidney coefficient (DN rats, high-dose 27 mg/kg) was 1.00 ± 0.09%, the “lesions of the renal tissues” value (DN rats, kidney pathology (HE, Masson staining)) was “effectively reduce the lesions of the renal tissues” and the BUN (DN rats, low-dose 3 mg/kg) was 11.59 ± 2.78 mmol/L. For the same molecule, the CREA (DN rats, low-dose 3 mg/kg) was 54.11 ± 3.50 µmol/L, the Glycated hemoglobin (DN rats, low-dose 3 mg/kg) was 9.01 ± 0.61% and the Urinary protein (DN rats, low-dose 3 mg/kg) was 5.81 ± 1.42^□□ mg/6 h. The “mALB (microalbumin in urine)” value (DN rats, low-dose 3 mg/kg) was 143.47 ± 33.28^□□●● μg/6 h, the ICAM-1 (DN rats, low-dose 3 mg/kg) was 384.02 ± 100.59 pg/mgprog and the IL-1β (DN rats, low-dose 3 mg/kg) was 158.77 ± 43.38 pg/mgprog. The IL-6 (DN rats, low-dose 3 mg/kg) was 195.42 ± 2.34 pg/mgprog, the MDA (DN rats, low-dose 3 mg/kg) was 1.65 ± 0.25 nmol/mgprog and the NF-κB (DN rats, low-dose 3 mg/kg) was 2415.59 ± 515.30 pg/mgprog. The SOD (DN rats, low-dose 3 mg/kg) was 5.66 ± 1.87 U/mgprog, the T-AOC (DN rats, low-dose 3 mg/kg) was 1.52 ± 0.58 U/mgprog and the TGF-β1 (DN rats, low-dose 3 mg/kg) was 100.46 ± 25.56 pg/mgprot. For the same molecule, the TNF-α (DN rats, low-dose 3 mg/kg) was 573.35 ± 150.75 pg/mgprog, the VCAM-1 (DN rats, low-dose 3 mg/kg) was 39.34 ± 10.56 pg/mgprog and the “Glucose (GLU)” value (DN rats, low-dose 3 mg/kg) was 19.94 ± 6.09^□□ mmol/L. For the same molecule, the HDL-C (DN rats, low-dose 3 mg/kg) was 1.27 ± 0.12 mmol/L, the LDL-C (DN rats, low-dose 3 mg/kg) was 1.90 ± 0.54^□□ mmol/L and the TC (DN rats, low-dose 3 mg/kg) was 3.28 ± 0.59^□□ mmol/L. The TG (DN rats, low-dose 3 mg/kg) was 0.38 ± 0.10^□□ mmol/L, the UA (DN rats, low-dose 3 mg/kg) was 26.01 ± 6.54^□□●● μmol/L and the Kidney coefficient (DN rats, low-dose 3 mg/kg) was 1.08 ± 0.09%. For the same molecule, the BUN (DN rats, medium-dose 9 mg/kg) was 10.97 ± 3.01 mmol/L, the CREA (DN rats, medium-dose 9 mg/kg) was 55.25 ± 1.01 µmol/L and the Glycated hemoglobin (DN rats, medium-dose 9 mg/kg) was 8.59 ± 0.85%. The Urinary protein (DN rats, medium-dose 9 mg/kg) was 5.29 ± 0.61^□□ mg/6 h, the “mALB (microalbumin in urine)” value (DN rats, medium-dose 9 mg/kg) was 125.38 ± 23.67^□□● μg/6 h and the ICAM-1 (DN rats, medium-dose 9 mg/kg) was 334.79 ± 55.46 pg/mgprog. For the same molecule, the IL-1β (DN rats, medium-dose 9 mg/kg) was 146.20 ± 16.12 pg/mgprog, the IL-6 (DN rats, medium-dose 9 mg/kg) was 168.44 ± 30.33 pg/mgprog and the MDA (DN rats, medium-dose 9 mg/kg) was 1.92 ± 0.34 nmol/mgprog. The NF-κB (DN rats, medium-dose 9 mg/kg) was 1017.81 ± 239.12^□▴●● pg/mgprog, the SOD (DN rats, medium-dose 9 mg/kg) was 5.33 ± 1.01 U/mgprog and the T-AOC (DN rats, medium-dose 9 mg/kg) was 1.93 ± 0.43 U/mgprog. For the same molecule, the TGF-β1 (DN rats, medium-dose 9 mg/kg) was 53.60 ± 11.60^□● pg/mgprot, the TNF-α (DN rats, medium-dose 9 mg/kg) was 436.04 ± 84.54 pg/mgprog and the VCAM-1 (DN rats, medium-dose 9 mg/kg) was 34.76 ± 5.04 pg/mgprog. For the same molecule, the “Glucose (GLU)” value (DN rats, medium-dose 9 mg/kg) was 18.58 ± 2.71^□□ mmol/L, the HDL-C (DN rats, medium-dose 9 mg/kg) was 1.16 ± 0.21 mmol/L and the LDL-C (DN rats, medium-dose 9 mg/kg) was 1.51 ± 0.48^□□ mmol/L. The TC (DN rats, medium-dose 9 mg/kg) was 2.71 ± 0.49^□□ mmol/L, the TG (DN rats, medium-dose 9 mg/kg) was 0.30 ± 0.11^□□ mmol/L and the UA (DN rats, medium-dose 9 mg/kg) was 25.63 ± 5.83^□□●● μmol/L. For the same molecule, the Kidney coefficient (DN rats, medium-dose 9 mg/kg) was 1.09 ± 0.14% and the “effect on resisting the DN of rats” value (overall summary in words) was “obvious effect on resisting the DN of rats”.
